# Test results: US20090030037A1, “Sustained Release Formulation and Dosing Schedules of Leukotriene Synthesis Inhibitor for Human Therapy” (deCODE Genetics ehf., priority 2005, published 2009)
# What was measured:
# Assay type in all cases: in vivo, human
# [1] = system: Amyloid A; assay: Study DG-031-201: amyloid A in serum; details: difference visit 2 to 5; 500 and 750 mg/day vs placebo
# Description: Genet. 2004). Apart from FLAP, allele A of the SNP SG12S25 in the LTA4 hydrolase gene, another gene in the LT pathway, is also associated with MI, as described in PCT application no. PCT/US03/32556 and PCT/US04/30582 incorporated by reference.
# (§1) Patients who met the study eligibility criteria were enrolled and randomized into 3 different dose-level groups: (1) 64 patients on 250 mg/day therapy with DG-031 (250 mg q.d.), vs placebo; (2) 64 patients on 500 mg/day therapy with DG-031 (250 mg b.i.d.) vs placebo; and (3) 63 patients on 750 mg/day therapy with DG-031 (250 mg t.i.d.) vs placebo. […] All patients received 3 tablets per day. Treatment periods, 4 weeks in duration each, were separated by a 2-week washout period. The placebo tablets were identical in shape, color, form and taste to the active tablets except that they contained no active drug ingredients. Treatment with DG-031 or placebo was in addition to the subject's standard care, including all medications and treatment plan as prescribed by the subject's cardiologist prior to enrolment. […]
# (§2) All data were analyzed according to a pre-established statistical analysis plan (SAP) and by intention-to-treat (ITT). […] The difference between DG-031 and placebo treatment was the primary outcome, assessed separately for each of the biomarkers. […]
# [2] = system: sICAM; assay: Study DG-031-201: ICAM (sICAM-1); details: [0%,6%], p=0.03
# Description: as §1, with “enrolment. A total of 191 subjects were enrolled, with 172 completing all 8 visits or 8 patients short of the target of 180 patients.” for “enrolment.”
# as §2
# [3] = system: LDL cholesterol; assay: Study DG-031-201: LDL cholesterol; details: highest dose of DG-031
# Description: Patients who met the study eligibility criteria were enrolled and randomized into 3 different dose-level groups: (1) 64 patients on 250 mg/day therapy with DG-031 (250 mg q.d.), vs placebo; (2) 64 patients on 500 mg/day therapy with DG-031 (250 mg b.i.d.) vs placebo; and (3) 63 patients on 750 mg/day therapy with DG-031 (250 mg t.i.d.) vs placebo. […] All patients received 3 tablets per day. Treatment periods, 4 weeks in duration each, were separated by a 2-week washout period. The placebo tablets were identical in shape, color, form and taste to the active tablets except that they contained no active drug ingredients. Treatment with DG-031 or placebo was in addition to the subject's standard care, including all medications and treatment plan as prescribed by the subject's cardiologist prior to enrolment. A total of 191 subjects were enrolled, with 172 completing all 8 visits or 8 patients short of the target of 180 patients.
# as §2, with “(ITT). Each arm of the study, as well as pooled sets (combining dose levels), was considered for the primary analysis.” for “(ITT).”
compound,measurement,setting,value
"O=C(O)[C@@H](c1ccc(OCc2ccc3ccccc3n2)cc1)C1CCCC1 [DG-031, (R)-(+)-alpha-cyclopentyl-4-(2-quinolinylmethoxy)-Benzeneacetic acid]","Carry-over effect, Amyloid A",[1],−0.14
same,Effect on serum sICAM-1,[2],reduced significantly
same,Increase in LDL cholesterol,[3],8%
